We go through 3 compounds from US11014953B2, “Trigger-activatable metabolic sugar precursors for cancer-selective labeling and targeting” (priority 2015, dated 2021).

Structures are written as SMILES. Peptide text beside a SMILES is read from it. * marks the point of attachment. Cbz = O=C(OCc1ccccc1)*

Data set [1] concerns LS174T colon cancer cells. The data set is described as follows: Metabolic labeling of LS174T cells with azido-sugars, azides detected by DBCO-Cy5 (confocal imaging, flow cytometry). The class given is cell-based. As to the method: General procedures for confocal imaging of azido-sugar labeled cells. Cells were seeded onto coverslips in a 6-well plate at a cell density of 40 k/well. Ac4ManAz or Ac3ManAz derivatives were added with a final concentration of 50 μM and the cells were incubated at 37° C. for 72 h. The medium was removed and washed with PBS for three times. DBCO-Cy5 (50 μM) in Opti-MEM was then added and the cells were incubated for another 1 h. Then the medium was removed and the cells were washed with PBS for three times. 4% paraformaldehyde (PFA) solution was added to fix the cells for 10 min, followed by staining of cell nucleus with DAPI (2 μg/mL) for 10 min. The coverslips were mounted on microscope slides with the addition of ProLong Gold antifade reagent, and the prepared sample was stored in dark for imaging.
General procedures for flow cytometry analysis of azido-sugar labeled cells. Cells were seeded onto coverslips in a 6-well plate at a cell density of 40 k/well. Ac4ManAz or Ac3ManAz derivatives were added and incubated with cells for 72 h. After removal of medium and multiple washing steps, DBCO-Cy5 in opti-MEM was added and incubated with cells at 37° C. for 1 h. The opti-MEM was then removed and cells were washed with PBS for three times. Cells were lifted by incubating with trypsin solution (1 mL) at 37° C. for 3 min and transferred to test tubes with addition of 4% PFA solution (0.5 mL). Twenty thousand cells per sample were analyzed by flow cytometry and data analysis was performed on the FCS Express software.
Ac3ManAzNB mediated controlled cell labeling. LS174T cells were seeded onto coverslips in a 6-well plate at a cell density of 40 k/well. Ac3ManAzNB with a final concentration of 50 μM was added. […] Cells without UV irradiation were continuously incubated for 72 h. Cell samples for confocal imaging and flow cytometry were then prepared following the above-mentioned procedures.
Ac3ManAzHQ mediated controlled cell labeling. LS174T colon cancer cells or Caco-2 colon cancer cells or human fibroblast IMR90 cells were seeded onto coverslips in a 6-well plate at a cell density of 40 k/well and allowed to attach for overnight. Ac3ManAzHQ with a final concentration of 50 μM was added, followed by the addition of curcumin with a final concentration of 50 μM. Cells treated with PBS or Ac3ManAzHQ only were used as control. After 72-h incubation, cell samples for confocal imaging and flow cytometry were prepared following the above-mentioned procedures.
E-S mediated controlled cell labeling in vitro. LS174T colon cancer cells or human fibroblast IMR90 cells were seeded onto coverslips in a 6-well plate at a cell density of 40 k/well. E-S with a final concentration of 50 μM was added, followed by the addition of either TSA (1 μM) or Z-FY-CHO (50 μM). Cells treated with PBS or E-S only were used as the control. After 72-h incubation, the medium was removed and cell samples for confocal imaging and GE-Analyzer measurements were prepared similarly to above-mentioned procedures.
(In general: A flow cytometer gives signals particle by particle.)

The next data set has as its system LS174T cells. The data set is described as follows: Western blot analysis of LS174T cells treated with azido-sugars. As to conditions: 72 h. The class given is cell-based. As to the method: Western blot analysis of cells treated with azido-sugars. LS174T cells were seeded onto cell culture flasks (25 cm^2 growth area) at a density of 1×10^6 cells per plate in 5 mL of media. Different azido-sugars were added and incubated with cells for 72 h. The cells were washed with PBS twice and harvested from the flasks using a cell scraper. Cells were pelleted by centrifugation at 1000 rpm for 5 min and re-suspended in 200 μL of lysis buffer (1% SDS, 100 mM Tris.HCl, pH 7.4) containing 1 tablet protease inhibitor (EDTA-free). The lysate was incubated at 4° C. for 30 min, followed by centrifugation at 3000 rcf for 10 min to remove insoluble debris. The total concentration of soluble protein in each sample was determined by bicinchoninic acid (BCA) assay and adjusted to the same concentration. Then 20 μL of the lysate was taken out and incubated with phosphine-PEG3-biotin (2 μL, 5 mM in PBS) at 37° C. for 6 h. Loading buffer was added to each sample and samples were loaded onto 10% SDS-PAGE gel after heating at 95° C. After running the gel for 100 min, proteins were transferred to Hybond P membrane, followed by blocking of the membrane with 5% bovine serum albumin (BSA) in TBST (50 mM Tris.HCl, 150 mM NaCl, 0.1% Tween 20, pH 7.4) for 2 h. The membrane was then incubated with streptavidin-HRP (diluted 1:2000 in TBST) overnight at 4° C., rinsed with TBST for three times and developed by ECL Western Blotting Substrate. For fluorescent visualization of protein bands, 20 μL of cell lysate was directly incubated with DBCO-Cy3 solution for 3 h. After the gel running and membrane transfer, protein bands were visualized using an Image Quant LAS 4010 system with a Cy3/Cy3 (excitation/emission) channel.
In general terms: A western blot detects proteins with antibodies after separation by electrophoresis.

Data set [2] relates to subcutaneous LS174T tumors. The data set is described as follows: In vivo tumor labeling after intratumoral injection of azido-sugars, DBCO-Cy5 i.v. The arrangement: species or system athymic nude mice. As to the method: In vivo tumor labeling of Ac4ManAz, Ac3ManAzEt, and Ac3ManAzNB. LS174T tumor models were established on 6 week-old athymic nude mice by subcutaneous injection of LS174T colon cancer cells (1.5 million) in HBSS/matrigel (1/1, v/v) to both flanks. When the tumors grew to 5-6 mm, Ac4ManAz or Ac3ManAzEt or Ac3ManAzNB (25 mM, 20 μL) was injected into the left tumors once daily for three days while the same amount of PBS was injected to the right tumors as control (N=3 per group). At 24 h post the last injection, DBCO-Cy5 (5 mg/kg) was i.v. injected and its biodistribution was monitored via in vivo fluorescence imaging. Prior to imaging, nude mice were placed on the sample stage equipped with anesthesia input and output ports, and imaged by the Maestro In-Vivo Fluorescence Imaging System. The excitation filter of 575-605 nm was used. The tunable emission filter was automatically stepped in 10-nm increments from 630 to 850 nm with an exposure time of 50 ms for images taken at each wavelength. Collected images were analyzed by the Maestro software, which uses spectral unmixing algorithms to subtract autofluorescence from Cy5 signals. Tumors and major organs were harvested from mice at 24 h post injection of DBCO-Cy5. Ex vivo images were collected similarly using the Maestro system. Fluorescence intensity at selected ROIs was quantified using Maestro imaging software. All values were presented as means±standard deviation (n=3).
Western blot analysis of tissues. Tumors and organs harvested from azido-sugar treated mice were transferred into glass tubes containing 2 mL of lysis buffer (1% SDS, 100 mM Tris HCl, pH 7.4), homogenized, and incubated at 4° C. for 30 min. The lysates were then centrifuged at 3000 rcf for 10 min to remove the insoluble debris. Total soluble protein concentrations were determined by BCA assay and adjusted to 5 mg/mL for each group. The rest of procedures were the same as the above-mentioned western blot analysis of cells.
Confocal imaging of tumor tissue sections. After ex vivo imaging, tumors were directly frozen in O.C.T. compound and sectioned on a cryostat (Leica CM3050S) with a thickness of 6-8 μm. DAPI in PBS (2 μg/mL) was added onto the tissue-attaching microscope slides to stain cell nucleus. After 10 min, DAPI solution was removed and tissues were washed with PBS for three times. Coverslips were mounted on the microscope slides with the addition of ProLong Gold antifade reagent, and the prepared sample was stored in dark for confocal imaging.

A further data set deals with LS174T tumors. Kind of data set: E-S mediated cancer-selective labeling in vivo, western blot analysis of tissues. The arrangement: species or system athymic nude mice. As to conditions: i.v. once daily three days, 24 h p.i.; liver, spleen, heart, lung, kidney. As to the method:
(1) Western blot analysis of tissues. LS174T tumor models were established in 6 week-old athymic nude mice by subcutaneous injection of LS174T colon cancer cells (1.5 million) in HBSS/matrigel (1/1, v/v). When the tumors grew to 5-6 mm, E-S (60 mg/kg) was i.v. injected once daily for three days. Mice i.v. administered with Ac4ManAz (40 mg/kg, 10% DMSO in PBS) or PBS were used as control. At 24 h post the last injection, tumors and major organs were harvested, transferred into lysis buffer (2 mL), and homogenized. The lysates were incubated at 4° C. for 30 min, and insoluble debris was removed by centrifugation at 3000 rpm for 10 min. Total soluble protein concentrations were determined by BCA assay and adjusted to 5 mg/mL for each group. The rest of procedures were the same as the abovementioned general procedures for western blot analysis. Azido-labeled protein bands in tumor tissues and healthy tissues of all three groups were visualized and compared to understand the cancer-selective labeling capability of E-S in vivo.

The conditions of data set [3]: in vivo.
Method: Liver, heart, kidneys, spleen, brain, sternum and spinal cord (cervical thoracic and lumbar) were fixed in formalin, paraffin-embedded, sectioned with a thickness of 4 μm, and stained with H&E. Tissues were analyzed by a board-certified pathologist to investigate treatment-mediated toxicity. These analyses were performed by a board certified pathologist.
Data set [4] deals with MDA-MB-231 breast cancer cells. The data set is described as follows: E-S mediated in vitro labeling of MDA-MB-231 cells. The format is cell-based. As to the method: E-S mediated in vitro labeling of MDA-MB-231 cells. MDA-MB-231 breast cancer cells were seeded onto coverslips in a 6-well plate at a cell density of 40 k/well. E-S with a final concentration of 50 μM was added, followed by the addition of either TSA (1 μM) or Z-FY-CHO (50 μM). Cells treated with PBS or E-S only were used as control. After 72-h incubation, the medium was removed and cell samples for confocal imaging and IN cell Analyzer measurements were prepared following the above-mentioned procedures.

In data set [5] the test system is cellular HDAC/CTSL activity. Kind of data set: Inhibitory effect of TSA and Z-FY-CHO on cellular HDAC/CTSL activity (Naph-Lys reporter). The format is cell-based. As to the method: Detection of cellular HDAC/CTSL activity. Cells were seeded in a 24-well plate at a cell density of 8 k/well, and were allowed to attach for overnight. Naph-Lys (50 μM) in OptiMEM was added and incubated with cells for different time (30 min, 1 h, 2 h, and 4 h). After removal of the OptiMEM and washing with PBS twice, cells were fixed with 4% PFA for 10 min and stained with DAPI (2 ng/mL) for 10 min. Average fluorescence intensity of cells were measured on a GE-Analyzer using DAPI and FITC channels. The DAPI channel was used for determining cell number per well. The FITC channel was used to determine the total fluorescence intensity of released Naph-NH2 per well. Data were presented with the average fluorescence intensity per cell.
Inhibitory effect of TSA and Z-FY-CHO on cellular HDAC/CTSL activity. TSA and Z-FY-CHO are known to be the inhibitor of HDAC and CTSL, respectively. To study their inhibitory effect, cells were seeded in a 24-well plate at a cell density of 8 k/well, and were allowed to attach for overnight. Cells were then divided into 4 groups: group 1 cells were added Naph-Lys (50 μM); group 2 cells were added Naph-Lys (50 μM)+TSA (1 μM); group 3 cells were added Naph-Lys (50 μM)+Z-FY-CHO (20 μM); group 4 cells were added PBS as negative control. […] Average fluorescence intensity of cells were measured on a GE-Analyzer using DAPI and FITC channels.

Regarding `CC(=O)OC[C@H]1OC(OC(C)=O)[C@@H](NC(=O)CN=[N+]=[N-])[C@@H](OC(C)=O)[C@@H]1OC(C)=O` (stereo partly drawn) [Ac4ManAz, tetraacetyl N-azidoacetylmannosamine], the “Cy5 fluorescence on the cell surface (CLSM)” value in data set [1] (LS174T cells, 50 μM azido-sugar three days (72 h), then DBCO-Cy5 1 h) was “strong Cy5 fluorescence on the cell surface”. The “Cy5 fluorescence by flow cytometry” value in data set [1] (LS174T cells, compared with cells treated with Ac3ManAzEt or PBS) was “significantly enhanced Cy5 fluorescence”. For the same compound, the “Western blot of azido-glycoproteins (biotinylated with phosphine-PEG3-biotin)” value with LS174T cells was “a series of protein bands”. Moreover, the “In vivo Cy5 fluorescence intensity of pretreated left tumors vs control right tumors” value in data set [2] (24 h p.i. of i.v. DBCO-Cy5) is on record as “much stronger Cy5 fluorescence intensity”. Moreover, in data set [2] (ex vivo imaging of tumors), the “Ex vivo increase in Cy5 FI compared to the control tumors” value is given as “over 4 fold”. Also, in data set [2] (intratumoral once daily for three days, tumors harvested 24 h p.i.), the “Western blot of tumors (azido-modified glycoproteins)” value is recorded as “a series of azido-modified glycoproteins”. Also, in data set [2] (tumor sections after ex vivo imaging), the “Cy5 fluorescence of tumor sections (confocal imaging)” value was “strong Cy5 fluorescence”. Besides, the “Azido-modified proteins in normal tissues (western blot)” value in the data set on LS174T tumors was “non-specific labeling in normal tissues”.
Take `COc1cccc2c1C(=O)c1c(O)c3c(c(O)c1C2=O)C[C@@](O)(C(=O)CO)C[C@@H]3O[C@H]1C[C@H](N)[C@H](O)[C@H](C)O1` [Doxo, doxorubicin]: the “Toxicity in mouse tissues (bone marrow, spleen)” value in data set [3] is given as “much greater toxicity”.
Take `O=C[C@H](Cc1ccc(O)cc1)NC(=O)[C@H](Cc1ccccc1)NC(=O)OCc1ccccc1` [Z-FY-CHO] (Cbz-Phe-Tyr-aldehyde): in data set [1] (LS174T cells co-incubated with E-S and inhibitor), the “Labeling efficiency of E-S on co-incubation with inhibitor” value is given as “greatly reduced”. Also, the “Labeling efficiency of E-S in the presence of inhibitor” value in data set [4] is recorded as “significantly decreased the labeling efficiency”. For the same compound, the “Turn-on fluorescence intensity of Naph-Lys in the presence of the inhibitor” value in data set [5] is “greatly decreased”.
